# Source: ChEMBL document CHEMBL1201862, “PubChem BioAssay data set” (2004)
# Activity calls are given as the source filed them.
# Columns and labels:
# [1] = test system: Vero; assay: viability of Vero cells under compound – cytotoxicity control for flavivirus capping enzyme inhibitors (AID 588742); format: functional; details: Chlorocebus sabaeus
# [2] = biological target: T1, High affinity choline transporter 1 (Homo sapiens, UniProt Q9GZV3); assay: human choline transporter blockers, potency – cell-based, 5-point CRC, membrane potential dye, dose response (AID 504840); format: functional
# T1 sequence (Q9GZV3 whole entry): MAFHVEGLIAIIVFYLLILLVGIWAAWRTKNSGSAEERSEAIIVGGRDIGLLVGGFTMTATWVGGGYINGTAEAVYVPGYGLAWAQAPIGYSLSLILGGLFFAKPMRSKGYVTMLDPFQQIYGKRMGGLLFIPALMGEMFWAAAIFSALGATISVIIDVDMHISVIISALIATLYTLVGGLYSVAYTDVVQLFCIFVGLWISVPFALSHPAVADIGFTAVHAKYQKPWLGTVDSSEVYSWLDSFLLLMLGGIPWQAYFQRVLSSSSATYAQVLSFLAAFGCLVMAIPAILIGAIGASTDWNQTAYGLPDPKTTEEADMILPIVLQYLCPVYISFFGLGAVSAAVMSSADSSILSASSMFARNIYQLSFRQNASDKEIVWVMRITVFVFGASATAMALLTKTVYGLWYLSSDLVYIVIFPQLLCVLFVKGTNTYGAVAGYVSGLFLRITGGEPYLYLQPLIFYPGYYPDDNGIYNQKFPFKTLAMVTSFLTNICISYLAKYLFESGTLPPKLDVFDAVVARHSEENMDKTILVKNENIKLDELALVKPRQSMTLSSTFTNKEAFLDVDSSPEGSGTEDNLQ
# [3] = biological target: T1, High affinity choline transporter 1; assay: human choline transporter blockers, potency – cell-based, 10-point CRC, membrane potential dye, dose response (AID 588401); format: functional;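 further: membrane potential dye fluorescence of choline-evoked depolarization via CHT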
# [4] = biological target: Beta-galactosidase (Escherichia coli, UniProt Q8VNN2); assay: PubChem AID 485352; format: functional
# Chain of Beta-galactosidase (Q8VNN2 whole entry): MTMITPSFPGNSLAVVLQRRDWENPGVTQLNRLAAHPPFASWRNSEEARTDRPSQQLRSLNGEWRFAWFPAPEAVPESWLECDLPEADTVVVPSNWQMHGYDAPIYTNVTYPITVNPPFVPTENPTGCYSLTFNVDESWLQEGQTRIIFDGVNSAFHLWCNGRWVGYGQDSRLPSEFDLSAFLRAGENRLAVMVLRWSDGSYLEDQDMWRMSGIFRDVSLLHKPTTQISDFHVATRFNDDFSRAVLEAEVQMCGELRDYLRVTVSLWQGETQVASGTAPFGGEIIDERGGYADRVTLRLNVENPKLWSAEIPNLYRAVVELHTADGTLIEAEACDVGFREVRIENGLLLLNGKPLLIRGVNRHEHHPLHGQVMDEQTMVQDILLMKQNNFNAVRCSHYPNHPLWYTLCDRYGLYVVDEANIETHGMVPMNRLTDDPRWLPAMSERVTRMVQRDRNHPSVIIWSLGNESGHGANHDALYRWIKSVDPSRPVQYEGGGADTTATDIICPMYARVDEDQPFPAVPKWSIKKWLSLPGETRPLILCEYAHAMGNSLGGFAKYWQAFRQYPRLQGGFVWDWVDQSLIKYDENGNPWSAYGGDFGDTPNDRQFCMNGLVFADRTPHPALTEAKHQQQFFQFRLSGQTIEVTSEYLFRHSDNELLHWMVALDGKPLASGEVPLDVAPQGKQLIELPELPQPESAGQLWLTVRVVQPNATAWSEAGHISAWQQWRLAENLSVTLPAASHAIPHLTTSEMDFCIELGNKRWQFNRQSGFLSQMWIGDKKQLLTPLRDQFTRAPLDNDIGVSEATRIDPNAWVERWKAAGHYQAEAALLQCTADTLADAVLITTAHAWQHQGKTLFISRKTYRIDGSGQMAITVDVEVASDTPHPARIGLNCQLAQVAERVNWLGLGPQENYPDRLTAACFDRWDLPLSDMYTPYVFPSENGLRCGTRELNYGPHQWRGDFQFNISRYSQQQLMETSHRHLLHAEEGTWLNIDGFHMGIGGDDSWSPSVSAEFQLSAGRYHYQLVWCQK
# [5] = biological target: T2, Type-1 angiotensin II receptor (Homo sapiens, UniProt P30556); assay: antagonism of angiotensin II type 1 receptor – cell-based, uHTS hits, selectivity assay for APJ receptor antagonist project, dose response (AID 463214); format: functional;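 further: antagonist potency against angiotensin II stimulated AT1 response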
# T2 sequence (P30556 whole entry): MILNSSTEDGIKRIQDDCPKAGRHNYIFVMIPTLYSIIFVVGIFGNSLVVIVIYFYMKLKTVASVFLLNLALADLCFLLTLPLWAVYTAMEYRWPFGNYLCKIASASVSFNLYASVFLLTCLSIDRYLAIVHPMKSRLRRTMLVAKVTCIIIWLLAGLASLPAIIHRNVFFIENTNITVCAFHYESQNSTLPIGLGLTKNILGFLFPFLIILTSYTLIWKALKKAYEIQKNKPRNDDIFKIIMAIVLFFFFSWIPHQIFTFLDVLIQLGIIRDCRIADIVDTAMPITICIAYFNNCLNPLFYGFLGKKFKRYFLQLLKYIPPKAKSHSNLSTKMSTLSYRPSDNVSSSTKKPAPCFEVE
# [6] = test system: A-375; assay: MITF: Counter assay: A375 proliferation Measured in Cell-Based System Using Plate Reader - 2084-03_Inhibitor_Dose_DryPowder_Activity. [Related pubchem assays (depositor defined):AID488944]; format: functional; details: Homo sapiens
# [7] = test system: A-375; assay: proliferation inhibition in MITF-low A375 cells – cell-based, cherry-pick samples, set 2, counter-screen for MITF modulator project, dose response (AID 540335); format: functional; details: Homo sapiens
# [8] = biological target: T3, Short transient receptor potential channel 4 (Mus musculus, UniProt Q9QUQ5); assay: calcium entry via TRPC4 opening agents – cell-based, HEK293 TRPC4/mu-opioid, Fluo-4 calcium, dose response (AID 434937); format: functional
# T3 sequence (Q9QUQ5 whole entry): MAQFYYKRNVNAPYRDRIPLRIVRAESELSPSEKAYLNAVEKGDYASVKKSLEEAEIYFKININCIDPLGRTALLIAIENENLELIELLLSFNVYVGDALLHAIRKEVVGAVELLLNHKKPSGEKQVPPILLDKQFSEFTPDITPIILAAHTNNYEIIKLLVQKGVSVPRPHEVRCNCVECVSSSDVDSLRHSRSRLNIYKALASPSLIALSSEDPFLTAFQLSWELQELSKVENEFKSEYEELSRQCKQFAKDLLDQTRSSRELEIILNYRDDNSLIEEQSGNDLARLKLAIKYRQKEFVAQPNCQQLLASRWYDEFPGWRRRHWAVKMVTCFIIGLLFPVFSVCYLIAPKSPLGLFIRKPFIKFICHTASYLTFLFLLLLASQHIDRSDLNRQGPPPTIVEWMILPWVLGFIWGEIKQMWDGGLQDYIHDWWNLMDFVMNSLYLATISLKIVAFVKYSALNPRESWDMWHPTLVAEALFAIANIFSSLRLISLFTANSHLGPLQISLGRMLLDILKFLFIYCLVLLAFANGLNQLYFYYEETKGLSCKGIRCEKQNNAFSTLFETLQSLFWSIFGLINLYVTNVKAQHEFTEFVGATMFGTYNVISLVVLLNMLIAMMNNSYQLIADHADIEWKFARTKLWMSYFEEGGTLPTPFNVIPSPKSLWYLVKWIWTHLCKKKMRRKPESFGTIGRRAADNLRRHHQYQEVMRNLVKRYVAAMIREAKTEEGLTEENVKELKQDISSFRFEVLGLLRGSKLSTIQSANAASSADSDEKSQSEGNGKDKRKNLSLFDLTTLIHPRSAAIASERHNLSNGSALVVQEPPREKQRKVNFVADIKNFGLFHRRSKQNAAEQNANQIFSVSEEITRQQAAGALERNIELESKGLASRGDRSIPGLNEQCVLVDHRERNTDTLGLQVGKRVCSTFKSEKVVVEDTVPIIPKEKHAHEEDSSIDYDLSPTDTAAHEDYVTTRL
# [9] = biological target: T4, Microphthalmia-associated transcription factor (Homo sapiens, UniProt O75030); assay: reducers of TRPM1 reporter luminescence, concentration series – cell-based, SK-MEL-5, cherry-picked, set 3, MITF inhibitor project, dose response (AID 493073); format: functional;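 further: SK-MEL-5 melanoma cells with luciferase driven by the MITF target TRPM1 promoter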
# T4 sequence (O75030 whole entry): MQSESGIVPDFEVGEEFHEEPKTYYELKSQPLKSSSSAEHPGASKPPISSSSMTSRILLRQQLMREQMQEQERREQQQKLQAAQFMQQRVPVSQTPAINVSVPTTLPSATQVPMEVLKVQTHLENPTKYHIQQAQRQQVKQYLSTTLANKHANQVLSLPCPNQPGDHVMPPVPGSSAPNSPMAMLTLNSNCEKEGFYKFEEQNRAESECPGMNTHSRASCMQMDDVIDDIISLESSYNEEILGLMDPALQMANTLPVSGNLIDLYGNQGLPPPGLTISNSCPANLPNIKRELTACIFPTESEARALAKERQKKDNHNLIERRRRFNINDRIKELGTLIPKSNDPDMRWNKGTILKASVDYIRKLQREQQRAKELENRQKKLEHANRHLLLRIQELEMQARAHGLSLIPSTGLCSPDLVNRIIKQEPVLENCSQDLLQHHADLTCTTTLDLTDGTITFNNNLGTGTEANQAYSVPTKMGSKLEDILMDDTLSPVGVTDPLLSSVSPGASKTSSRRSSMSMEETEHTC
# [10] = biological target: ATP-dependent molecular chaperone HSP82 (Candida albicans (strain WO-1) (Yeast), UniProt C4YTQ8); assay: steroid-induced GRE reporter decrease in yeast – S. cerevisiae, luminescence, Hsp90 inhibitor project, dose response (AID 2400); format: functional, cell-based;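 further: beta-galactosidase luminescence from glucocorticoid response element reporter as proxy for Hsp90 function; inhibitor potency where signal loss means Hsp90 inhibition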
# Chain of ATP-dependent molecular chaperone HSP82 (C4YTQ8 whole entry): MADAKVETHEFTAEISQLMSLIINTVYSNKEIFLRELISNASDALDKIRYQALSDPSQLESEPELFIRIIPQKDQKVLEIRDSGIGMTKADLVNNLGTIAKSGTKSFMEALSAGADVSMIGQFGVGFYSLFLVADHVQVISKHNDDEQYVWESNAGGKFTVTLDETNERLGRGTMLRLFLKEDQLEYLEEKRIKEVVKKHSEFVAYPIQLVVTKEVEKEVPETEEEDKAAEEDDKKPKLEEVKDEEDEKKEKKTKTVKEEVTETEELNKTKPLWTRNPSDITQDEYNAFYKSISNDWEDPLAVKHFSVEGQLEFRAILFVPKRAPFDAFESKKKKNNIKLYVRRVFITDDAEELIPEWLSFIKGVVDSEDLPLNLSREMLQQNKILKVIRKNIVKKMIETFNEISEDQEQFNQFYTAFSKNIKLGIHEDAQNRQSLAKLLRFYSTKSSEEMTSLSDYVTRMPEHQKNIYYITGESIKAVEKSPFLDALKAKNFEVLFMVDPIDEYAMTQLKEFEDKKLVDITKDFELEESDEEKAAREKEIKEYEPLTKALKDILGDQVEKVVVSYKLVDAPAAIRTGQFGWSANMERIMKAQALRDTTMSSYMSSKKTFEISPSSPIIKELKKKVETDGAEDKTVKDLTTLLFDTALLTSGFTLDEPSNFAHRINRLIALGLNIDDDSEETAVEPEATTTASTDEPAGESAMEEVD
# [11] = biological target: T5, Serine/threonine-protein phosphatase (Candida dubliniensis (strain CD36 / CBS 7987 / NCPF 3949 / NRRLY-17841) (Yeast), UniProt B9W6M3); assay: blockers of CaCl2-induced CDRE-lacZ signaling – S. cerevisiae, luminescence, secondary, dose response (AID 2388); format: functional, cell-based;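 further: yeast reporter cells carrying a calcineurin-responsive lacZ construct stimulated with calcium chloride; luminescent beta-galactosidase reporter signal in whole cells rather than isolated phosphatase activity; potency for inhibition where a drop in reporter signal means calcineurin blockade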
# T5 sequence (B9W6M3 whole entry): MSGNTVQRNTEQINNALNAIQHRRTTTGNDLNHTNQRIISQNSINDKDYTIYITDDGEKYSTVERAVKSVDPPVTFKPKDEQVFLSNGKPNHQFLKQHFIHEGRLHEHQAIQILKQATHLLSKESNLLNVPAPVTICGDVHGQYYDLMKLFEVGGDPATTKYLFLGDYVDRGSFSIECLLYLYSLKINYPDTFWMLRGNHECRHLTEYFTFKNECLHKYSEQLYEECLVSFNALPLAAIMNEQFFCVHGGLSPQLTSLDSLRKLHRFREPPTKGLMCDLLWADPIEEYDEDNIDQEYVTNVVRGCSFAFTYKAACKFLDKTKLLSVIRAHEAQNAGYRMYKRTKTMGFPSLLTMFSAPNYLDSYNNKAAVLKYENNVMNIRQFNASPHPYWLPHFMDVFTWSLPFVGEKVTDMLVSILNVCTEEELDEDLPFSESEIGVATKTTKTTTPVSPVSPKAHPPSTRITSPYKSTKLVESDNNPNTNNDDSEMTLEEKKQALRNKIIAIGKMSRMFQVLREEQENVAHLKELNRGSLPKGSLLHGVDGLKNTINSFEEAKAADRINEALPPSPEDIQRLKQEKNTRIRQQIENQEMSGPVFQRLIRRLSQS
# [12] = fluconazole-exposed Candida albicans growth modulators – fluorescence, retest, confirmation (AID 2467); format: functional, cell-based
# [13] = biological target: T6, Protein skinhead-1 (Caenorhabditis elegans, UniProt P34707); format: functional
# T6 sequence (P34707 whole entry): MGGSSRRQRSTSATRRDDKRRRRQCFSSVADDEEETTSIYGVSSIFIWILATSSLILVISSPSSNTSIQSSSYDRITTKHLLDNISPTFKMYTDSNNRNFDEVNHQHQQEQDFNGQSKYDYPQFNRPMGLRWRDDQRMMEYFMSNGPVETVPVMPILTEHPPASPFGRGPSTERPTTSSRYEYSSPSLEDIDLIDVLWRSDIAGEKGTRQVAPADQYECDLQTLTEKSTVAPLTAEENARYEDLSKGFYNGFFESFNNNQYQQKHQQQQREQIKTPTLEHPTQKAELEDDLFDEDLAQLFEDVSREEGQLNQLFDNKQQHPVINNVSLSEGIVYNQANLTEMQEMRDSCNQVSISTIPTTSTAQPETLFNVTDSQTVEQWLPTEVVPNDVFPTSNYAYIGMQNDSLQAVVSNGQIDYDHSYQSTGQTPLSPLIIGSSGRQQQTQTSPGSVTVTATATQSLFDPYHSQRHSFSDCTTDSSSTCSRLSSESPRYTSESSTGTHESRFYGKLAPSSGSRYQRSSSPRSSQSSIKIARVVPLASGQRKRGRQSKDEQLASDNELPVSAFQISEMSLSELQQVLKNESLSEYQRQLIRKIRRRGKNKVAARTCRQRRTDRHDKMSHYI
# [14] = test system: INS1; assay: INS-1E survival protection against cytokine death – cell-based, luminescence, retest, dose response (AID 449756); format: functional; details: Rattus norvegicus;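 further: cell death triggered by IL-1 beta plus TNF-alpha plus IFN-gamma mixture; protective hits raise ATP signal compared with cytokine alone wells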
# [15] = NIH-3T3 fibroblast cytotoxicity, dose response, cytotoxicity control, cell-based, fluorescence, Alamar Blue, secondary assay (AID 2327); format: functional;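 further: NIH-3T3 mouse fibroblasts cultured with fluconazole at 8 µg/mL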
# [16] = biological target: T7, Orexin receptor type 2 (Homo sapiens, UniProt O43614); assay: Counterscreen assay for antagonists of the orexin 1 receptor (OX1R; HCRTR1): Fluorescence-based cell-based dose response assay for antagonists of the orexin 2 receptor (OX2R; HCRTR2), run by assay provider.; format: functional
# T7 sequence (O43614 whole entry): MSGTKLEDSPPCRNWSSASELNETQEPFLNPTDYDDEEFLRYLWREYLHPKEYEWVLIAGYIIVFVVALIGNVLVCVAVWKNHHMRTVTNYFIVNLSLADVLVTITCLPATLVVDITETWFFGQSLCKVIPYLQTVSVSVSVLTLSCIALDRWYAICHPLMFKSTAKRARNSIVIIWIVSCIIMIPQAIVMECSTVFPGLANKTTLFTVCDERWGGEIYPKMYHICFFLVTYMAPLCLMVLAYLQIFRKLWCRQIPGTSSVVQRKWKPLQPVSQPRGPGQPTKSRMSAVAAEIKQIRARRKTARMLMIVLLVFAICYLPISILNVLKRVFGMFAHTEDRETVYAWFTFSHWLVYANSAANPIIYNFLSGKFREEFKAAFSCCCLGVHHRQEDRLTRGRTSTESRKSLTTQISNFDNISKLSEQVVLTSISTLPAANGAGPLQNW
# [17] = biological target: T7, Orexin receptor type 2; assay: Counterscreen assay for antagonists of the orexin 1 receptor (OX1R; HCRTR1): Homogeneous Time Resolved Fluorescence (HTRF)-based cell-based dose response assay for antagonists of the orexin 2 receptor (OX2R; HCRTR2), run by assay provider.; format: functional
# [18] = microbe, parasite or virus in culture; format: functional; details: Mycobacterium tuberculosis
smiles,measurement,setting,value
COc1ccc(CC2=C(O)C(=O)c3ccccc3C2=O)cc1,CC50,[1],> 40 µM (active)
O=C(NC1CCCCCCC1)c1ccc(CNc2c(N3CCOCC3)c(=O)c2=O)cc1,IC50,[2],0.875 µM (active)
same,IC50,[3],2.01 µM (active)
O=C(COC(=O)c1ccncc1)c1ccc(Cl)c(Cl)c1,EC50,[4],> 40 µM (inactive)
same,IC50,[5],15 µM (active)
COc1ccc(NS(=O)(=O)c2ccc(NC(=O)c3ccccc3Br)cc2)nn1,IC50,[2],10.3 µM (active)
same,IC50,[3],5.01 µM (active)
COc1ccc(CN2CCN(C(C)C)C(CCO)C2)cc1Cn1cccn1 (stereo not given),IC50,[2],3.31 µM (active)
same,IC50,[3],1.41 µM (active)
CN(C)CCCN(C(=O)c1ccc(Cl)s1)c1nc2cc3c(cc2s1)OCO3,AC50,[6],> 11 µM (active)
same,AC50,[7],> 11 µM (active)
same,EC50,[8],5.96 µM (active)
same,AC50,[9],22.9 µM (active)
COc1cccc(COc2cc3ccccc3nc2C)c1,EC50,[10],> 160 µM (inactive)
same,EC50,[11],> 180 µM (inactive)
same,EC50,[12],0.914 µM (active)
same,IC50,[13],80.1 µM (inactive)
same,AC50,[14],2.61 µM (active)
same,EC50,[15],> 150 µM (inconclusive)
CCOc1ccccc1C(=O)NCCCCNC(=O)c1ccccc1OCC,IC50,[16],> 88.8 µM (inactive)
same,IC50,[17],> 50 µM (inactive)
Cc1sc2nc3c4ccccc4c(NCc4ccco4)nn3c(=O)c2c1C,CC50,[1],> 40 µM (active)
same,CC50,[18],37.6 µM (active)
Cc1ccc(C(=O)COC(=O)CNS(=O)(=O)c2ccccc2)cc1[N+](=O)[O-],EC50,[4],> 40 µM (inactive)
same,IC50,[5],33 µM (not active)
